Earlier results in EP3744320A1, “PHAR[…] C[…]” (Alfred E. Tiefenbacher (GmbH & Co. KG), priority 2019, dated 2020).

time of peak plasma concentrations (administered in vivo): 1 to 2 h
absolute bioavailability (in vivo): approximately 62%
absorbed in the upper gastrointestinal tract (in vivo): approximately 85%
Structure (SMILES): CN1CCc2nc(C(=O)N[C@@H]3C[C@@H](C(=O)N(C)C)CC[C@@H]3NC(=O)C(=O)Nc3ccc(Cl)cn3)sc2C1 [edoxaban, N'-(5-chloropyridin-2-yl)-N-[(1S,2R,4S)-4-(dimethylcarbamoyl)-2-[(5-methyl-6,7-dihydro-4H-[1,3]thiazolo[5,4-c]pyridine-2-carbonyl)amino]cyclohexyl]oxamide]
